Here are results for one molecule from ChEMBL document CHEMBL1151399, “Identification of terpenoids from the leaves of Piptocarpha paradoxa and their biological activities” (J Nat Prod, 1982).

Activity calls are given as the source filed them. The calls are words filed in the database; no cut-off is given here.

What all share (type): functional, organism-based
In one experiment the test system is Klebsiella aerogenes. In words: Antimicrobial activity against Enterobacter aerogenes Kruse 1896 by Kirby and Baur method.
A further experiment has as its system Kocuria rosea. Description: Antimicrobial activity against Micrococcus roseus Flugge 1886 by Kirby and Baur method.
The test system of the next experiment is Staphylococcus aureus. Description: Antimicrobial activity against Staphylococcus aureus Rosenbach 1884 by Kirby and Baur method.
For the next experiment, the system named is Salmonella typhi. Description: Antimicrobial activity against Salmonella typhi Zopf 1884 by Kirby and Baur method. The following applies: Salmonella enterica subsp. enterica serovar Typhi.
For a further experiment, the system named is Escherichia coli. In words: Antimicrobial activity against Escherichia coli Migula 1895 by Kirby and Baur method.
In the next experiment the test system is Providencia rettgeri. In words: Antimicrobial activity against Proteus rettgeri Hadley 1918 by Kirby and Baur method.
Another experiment relates to Streptococcus sp. In words: Antimicrobial activity against Streptococcus sp. Rosenbach 1884 by Kirby and Baur method.
For a further experiment, the system named is Candida. In words: Antimicrobial activity against Candida sp. Berkhout by Kirby and Baur method.

Turning to `C=C1CCC2CC1C(C)(C)CC(O)/C=C\2C` (stereo not drawn), the outcome in the experiment on Klebsiella aerogenes, in the experiment with Kocuria rosea, in the experiment with Salmonella typhi, in the experiment with Escherichia coli, with Providencia rettgeri and in the experiment on Streptococcus sp. was inactive. Moreover, the result with Candida was inactive. Besides, in the experiment on Staphylococcus aureus, the result was Active.
